# Experimental data taken from patent US11911406B2, “PH-responsive polymer-drug conjugates for enhanced antibacterial efficacy” (priority 2020, dated 2024).
# Assays:
# [1] = test system: E. coli ATCC 25922; assay: Mouse thigh infection model; assay type: in vivo, ICR mice; conditions: single i.v. injection 1 h after infection, equivalent of 5 mg streptomycin/kg, thighs at 24 h
# Method: Mouse thigh infection model. ICR mice (female, 22-24 g, Charles River) were intramuscularly inoculated with E. coli ATCC 25922 (2×10^8 CFU/mL in saline, 0.05 mL bacteria suspension per thigh) on their both thighs and randomly divided into 4 groups (n=3). The mice were treated with PBS, free streptomycin (5 mg/kg), […] through i.v. injection 1 h after the infection. 24 h after the inoculation, animals were euthanized by CO2 asphyxiation and thigh muscles were collected and homogenized in 5 mL cold PBS with glass homogenizer. The homogenates in the amount of 0.1 mL were used for serial tenfold dilutions and spread onto nutrient agar plate for CFU determination.
# [2] = test system: E. coli ATCC 25922; assay: Evaluation of antibiotic resistance development (serial passaging); assay type: cell-based; conditions: sub-lethal dose (0.5 MIC)
# Method: Evaluation of antibiotic resistance development. E. coli ATCC 25922 was employed to study the drug resistance development under sublethal dose treatments of free streptomycin, cationic polymer or the PDC. During a serial of passages, the MIC of each treatment was measured by the broth microdilution method as described above, and the bacteria were exposed to ½MIC at that particular passage. MIC for each passage was recorded and normalized to that of the first passage to determine the drug resistance enhancement.
# [3] = test system: MRSA biofilm; assay: Biofilm inhibition assay (crystal violet); assay type: cell-based, S. aureus
# Method: Biofilm inhibition assays. Exponentially growing bacteria were inoculated into 96 well plates (1×10^4 cell/well) containing MHB broth with 2% (v/w) glucose, incubated under stationary conditions at 37° C. for one day. After biofilm formation, the media was discarded and the plates were washed with PBS to remove the planktonic bacteria. Fresh NMB broth containing serially diluted free streptomycin or PDC were added to the plates and incubated at 37° C. for another 24 h. The media in each well was then removed, and the plates were washed carefully with PBS for 1 time. The biofilm in each well was fixed with 95% ethanol for 15 min and stained with 0.1% crystal violet for 15 min. After washing with Milli-Q water for three times, 33% v/v acetic acid (100 μL/well) was added to solubilize the crystal violet staining. OD 560 in each well was read to determine the biofilm formation. The biofilm formed as described above was also stained with acridine orange and Cy5 labeled PDC, and monitored by CLSM to observe the PDC penetration.
# [4] = test system: E. coli, MRSA and P. aeruginosa; assay: Scanning electron microscopy (SEM) observation; assay type: cell-based; conditions: pH 6.0, 3 h
# Method: Scanning electron microscopy (SEM) observation. Bacteria suspensions were prepared as above and treated with PDC at different pH for 3 h, washed with saline and fixed with 2.5% glutaraldehyde at 4° C. overnight. The samples were washed with Milli-Q water and dehydrated with a series of graded ethanol solutions (50%, 75%, 90%, 100%, each for 5 min). After drying for 1 day, the samples were coated with platinum and observed by SEM (Zeiss/LEO 1530).
# [5] = test system: E. coli ATCC 25922; assay: Live/Dead bacterial staining assay (AO/EB); assay type: cell-based; conditions: 0.5 h and 3 h
# Method: Live/Dead bacterial staining assay. Exponentially growing bacteria (E. coli ATCC 25922) were collected by centrifugation at 8000 rpm for 5 min, washed with saline and diluted to OD 600 value of 0.5. The bacterial suspensions were incubated with different treatments at 37° C. for 0.5 h and 3 h, and then washed with saline and stained by acridine orange (10 μg/mL) and ethidium bromide (EB, […]) solution for 15 min. Afterward, the bacteria were collected via centrifugation, washed with saline for 2 times, resuspended in 70% glycerol and spread on glass slides. The live/dead bacteria were observed by a confocal laser scanning microscope (CLSM).
# [6] = test system: P. aeruginosa ATCC 27853; assay: Mouse lung infection model; assay type: in vivo, ICR mice
# Method: Mouse lung infection model. […] In another experiment of monitoring the mice survival for the lung infection model, the P. aeruginosa infected mice were given 2 treatments (1 h and 8 h after the infection) and their survival was observed using Kaplan-Meier curves (n=5).
substance,measurement,setting,value
Hex-Cys-Cys-DET-strep-DMA [Neutralized PDC],reductions in CFU,[1],more than 4 orders
same,increase in MIC after 20 passages,[2],2 fold
same,biofilm removed,"[3]; equivalent of 32 μg/mL streptomycin, acidic conditions",More than 90%
same,biofilm eliminated,[3]; streptomycin concentration 16 μg/mL,75%
same,"bacterial membrane morphology (SEM), in words",[4],severe membrane disruption and deformation
same,"bactericidal effect / EB staining, in words",[5],much delayed and pH-dependent bactericidal effect
same,"survival, in words",[6]; 2 i.v. injections (1 h and 8 h after the infection),all of the PDC treated mice survived
same,"bacterial burden in lungs, in words","[6]; single i.v. injection 1 h after infection, CFU per lung at 12 h",lowest bacterial burden in their lungs
